Among the data in patent publication EP0031801A2, “6-Substituted 4-(2',3'-dichlorophenyl)-2-methyl-1,4-dihydropyridine-3,5-dicarboxylic acid diesters having hypotensive properties as well as process for their preparation and pharmaceutical preparations containing same” (priority 1979, dated 1981) are ED20 and Ratio heart vasc. values, retold here.

The structures appear in SMILES notation.

The subject of experiment [1] is spontaneously hypertensive rats (SHR) of the Okamoto strain. Put plainly: Antihypertensive effect in conscious, unrestrained spontaneously hypertensive rats, oral dosing. The format is in vivo. The conditions noted are these: Rattus norvegicus; dose giving 20 per cent reduction of mean arterial BP, by interpolation; oral intubation, cumulated doses at 2 hour intervals, suspended in methocel solution. As to the method:
The antihypertensive effect of the compounds was tested in conscious, unrestrained spontaneously hypertensive rats (SHR) of the Okamoto strain. The animals had been prepared by prior implantation of indwelling catheters in the abdominal aorta via the femoral artery. Mean arterial blood pressure (MABP) and heart rate were continuously monitored. After a 2 hour control period the compound under study was administered by oral intubation at 2 hour intervals, suspended in methocel solution (5 ml/kg bodyweight). The cumulated doses were […] bodyweight. The antihypertensive response, i.e. the BP reduction to each dose, was expressed as a percentage of the initial control BP level and plotted against the dose on a logarithmic scale. The dose which would give 20 per cent BP reduction was then determined by interpolation.

In experiment [2] the test system is isolated portal vein preparation / paced isolated papillary heart muscle preparation. Put plainly: Specificity towards smooth muscle relaxation: isolated portal vein versus paced papillary heart muscle in an organ bath. Set-up: species or system Wistar rats. The note with it: "separation" value: averaged difference of -log ED50 portal vein (vasodilatation) and -log ED50 papillary muscle (myocardial depression), transformed into numeric format. As to the method:
The specificity towards smooth muscle relaxation was examined as follows: The isolated portal vein preparation of Wistar rats was mounted in an organ bath together with a paced isolated papillary heart muscle preparation of the same animal. The integrated contractile activity of the portal vein smooth muscle and the peak force amplitude of the papillary, myocardial, preparation were recorded. The respective activities during a 30 min control period were set as 100 per cent and the ensuing activities under the influence of an agent under study were expressed as a percentage thereof. The agent was administered at 10 min intervals and the potency for vasodilatation(-log ED50 of-portal vein) and that of myocardial depression (-log ED50 of papillary muscle) were determined by interpolation from the concentration-effect relationships determined in each experiment. A "separation" value was determined for each compound by averaging the differences of the -log ED50 values for vasodilatation and myocardial depression, respectively, obtained in the experiments. This logarithmic separation value was transformed into numeric format and entered into table 2.

With `CCOC(=O)C1=C(C(C)C)NC(C)=C(C(=O)OC)C1c1cccc(Cl)c1Cl` (stereo not drawn) [Example 1, 2-isopropyl-4-(2,3-dichlorophenyl)-6-methyl-1,4-dihydropyridine-3,5-dicarboxylic acid-3-ethylester-5-methylester], the ED20 in experiment [1] was determined as 2.5 µmol/kg. For the same compound, the Ratio heart vasc. in experiment [2] came out at 98.

For the compound `CCOC(=O)C1=C(COC)NC(C)=C(C(=O)OC)C1c1cccc(Cl)c1Cl` (stereo not drawn) [Example 2, 2-methoxymethyl-4-(2,3-dichlorophenyl)-6-methyl-1,4-dihydropyridine-3,5-dicarboxylic acid-3-ethylester-5-methylester], in experiment [1], the ED20 was 2 µmol/kg. Also, the Ratio heart vasc. in experiment [2] turned out to be 158.

Turning to `COC(=O)C1=C(C)NC(C)=C(C(=O)OC)C1c1ccccc1[N+](=O)[O-]` [Nifedipin, 2,6-dimethyl-4-(2-nitrophenyl)-1,4-dihydropyridine-3,5-dicarboxylic acid-3,5-dimethylester, reference compound], the ED20 in experiment [1] is 5 µmol/kg. Further, the Ratio heart vasc. in experiment [2] is 15.
